Broadly, the IC50 is the concentration at which inhibition is half-maximal. Lower therefore signals greater potency. Broadly, the solubility is the dissolved amount per volume that the medium holds. A lower solubility goes with a poorly soluble substance.

This note sets out measurements from ChEMBL document CHEMBL3352232, “Discovery of pyridyl sulfonamide 11-beta-hydroxysteroid dehydrogenase type 1 (11β-HSD1) inhibitors for the treatment of metabolic disorders” (Bioorg Med Chem Lett, 2014).

Data set [1] deals with 11-beta-hydroxysteroid dehydrogenase 1 (Homo sapiens, UniProt P28845). The data set can be described thus: Inhibition of human 11-betaHSD1 by biochemical assay.
Sequence of 11-beta-hydroxysteroid dehydrogenase 1 (Homo sapiens, UniProt P28845) (P28845 whole entry): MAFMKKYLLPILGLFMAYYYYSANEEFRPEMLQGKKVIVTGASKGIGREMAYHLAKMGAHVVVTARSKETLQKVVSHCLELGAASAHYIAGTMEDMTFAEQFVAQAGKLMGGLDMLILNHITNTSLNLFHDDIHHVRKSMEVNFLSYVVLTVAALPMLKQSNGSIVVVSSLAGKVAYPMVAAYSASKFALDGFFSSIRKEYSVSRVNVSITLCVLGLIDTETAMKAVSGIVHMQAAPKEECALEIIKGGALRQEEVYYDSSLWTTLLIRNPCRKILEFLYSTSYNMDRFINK
Data set [2] can be described thus: Aqueous solubility of the compound. In kind it is physicochemical.
The target in data set [3] is 11-beta-hydroxysteroid dehydrogenase 1 (Mus musculus, UniProt P50172). The data set can be described thus: Inhibition of mouse 11-betaHSD1 by biochemical assay.
Sequence of 11-beta-hydroxysteroid dehydrogenase 1 (Mus musculus, UniProt P50172) (P50172 whole entry): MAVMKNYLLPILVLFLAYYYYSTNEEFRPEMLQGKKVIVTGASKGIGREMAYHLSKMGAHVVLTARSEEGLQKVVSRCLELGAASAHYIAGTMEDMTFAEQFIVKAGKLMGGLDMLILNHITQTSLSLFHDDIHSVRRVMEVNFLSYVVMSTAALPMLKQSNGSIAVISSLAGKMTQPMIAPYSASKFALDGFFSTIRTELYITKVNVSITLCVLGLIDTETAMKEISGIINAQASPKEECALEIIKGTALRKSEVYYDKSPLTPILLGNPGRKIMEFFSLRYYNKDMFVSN
The nature of data set [4]: Stability in human liver microsomes assessed as compound remaining after 10 mins. In kind it is ADME. Particulars: read-out: Stability; call rule not given here.
Data set [5] in a line: Stability in mouse liver microsomes assessed as compound remaining after 10 mins. In kind it is ADME. Conditions: read-out: Stability. A general note: Liver microsomes are vesicles of endoplasmic reticulum, rich in cytochrome P450 enzymes.
The nature of data set [6]: Stability in rat liver microsomes assessed as compound remaining after 10 mins. It is filed as ADME. Conditions: read-out: Stability.

Converted amounts (≈) assume the structure as drawn.

`N#Cc1ccc(-c2cccc(S(=O)(=O)N3CCC(C4CCCCC4)CC3)n2)cc1` displayed an IC50 in data set [1] of 9 nM. This compound returned a solubility in data set [2] below 1 µg/mL.
Turning to `N#Cc1ccc(-c2cccc(S(=O)(=O)N3CCC(N4CCOCC4)C3)n2)cc1` (centres undefined), in data set [1], half-maximal inhibition (IC50) was put at 160 nM. For the same compound, the solubility in data set [2] worked out at 14 µg/mL (≈ 35.1 µM).
Turning to `CC1CCN(S(=O)(=O)c2cccc(-c3ccc(Cl)cc3)n2)CC1`, inhibition in data set [1] was half-maximal at 55 nM (IC50). In data set [2], the solubility is 1 µg/mL (≈ 2.85 µM).
`CC1CCN(S(=O)(=O)c2cccc(-c3cccc(Cl)c3)n2)CC1`: in data set [1], the 50% inhibitory concentration (IC50) worked out at 310 nM. This compound registered a solubility in data set [2] of 1 µg/mL (≈ 2.85 µM).
In data set [1], `CC1CCN(S(=O)(=O)c2cccc(-c3ccc(C#N)cc3)n2)CC1` came in with an IC50 of 49 nM. This compound returned a solubility in data set [2] of 2 µg/mL (≈ 5.86 µM).
As to `O=S(=O)(c1cccc(-c2ccccc2)n1)N1CCC(N2CCOCC2)CC1`, the figures for the IC50 in data set [1] and in data set [3] were 30 nM and “Not Active”, respectively. The results for the remaining at 10 min in data set [4], in data set [5] and in data set [6] were 62%, 7% and 4%, respectively. In addition, the concentration in solution in data set [2] (solubility) was 48 µg/mL (≈ 124 µM).
Turning to `N#Cc1ccc(-c2cccc(S(=O)(=O)N3CCC(N4CCCC4)CC3)n2)cc1`, half-maximal inhibition in data set [1] (IC50) was put at 980 nM. Moreover, in data set [2], the solubility amounted to 270 µg/mL (≈ 681 µM).
Take `CC1CCN(C(=O)c2ccc(CSc3ccc(Cl)cc3)cc2)CC1`: in data set [1], the IC50 is 160 nM.
